Laboratory results taken from PMC8550792, “Evolution of kinase polypharmacology across HSP90 drug discovery” (Cell Chemical Biology, 2021).
Like-named read-outs stand apart in the source and are kept apart here.

Tests used:
Test in all cases: biochemical
Format in all cases: biochemical
382 unique human kinases [1] = biological target: T1, 382 unique human kinases (Homo sapiens, UniProt P48729); details: kinase CK1a1, compound 10 uM; for remaining activity at 10 µM: read-out: % Enzyme Activity (relative to DMSO controls)
T1 construct: purchased Reaction Biology (HotSpot contract assay)

382 unique human kinases [2] = biological target: T2, 382 unique human kinases (Homo sapiens, UniProt Q13131); details: for remaining activity at 10 µM: read-out: % Enzyme Activity (relative to DMSO controls)
T2 construct: purchased Reaction Biology (HotSpot contract assay)

382 unique human kinases [3] = biological target: T3, 382 unique human kinases (Homo sapiens, UniProt Q8N4C8); details: MINK/MINK1, 10 uM; for remaining activity at 10 µM: read-out: % Enzyme Activity (relative to DMSO controls)
T3 construct: purchased Reaction Biology (HotSpot contract assay)

382 unique human kinases [4] = biological target: T4, 382 unique human kinases (Homo sapiens, UniProt P08581, F1200I); details: kinase c-MET (F1200I), compound 10 uM; for remaining activity at 10 µM: read-out: % Enzyme Activity (relative to DMSO controls)
T4 construct: purchased Reaction Biology (HotSpot contract assay)

382 unique human kinases [5] = biological target: T5, 382 unique human kinases (Homo sapiens, UniProt Q15835); details: GRK1, 10 uM; for remaining activity at 10 µM: read-out: % Enzyme Activity (relative to DMSO controls)
T5 construct: purchased Reaction Biology (HotSpot contract assay)
T5 sequence (Q15835 1-563): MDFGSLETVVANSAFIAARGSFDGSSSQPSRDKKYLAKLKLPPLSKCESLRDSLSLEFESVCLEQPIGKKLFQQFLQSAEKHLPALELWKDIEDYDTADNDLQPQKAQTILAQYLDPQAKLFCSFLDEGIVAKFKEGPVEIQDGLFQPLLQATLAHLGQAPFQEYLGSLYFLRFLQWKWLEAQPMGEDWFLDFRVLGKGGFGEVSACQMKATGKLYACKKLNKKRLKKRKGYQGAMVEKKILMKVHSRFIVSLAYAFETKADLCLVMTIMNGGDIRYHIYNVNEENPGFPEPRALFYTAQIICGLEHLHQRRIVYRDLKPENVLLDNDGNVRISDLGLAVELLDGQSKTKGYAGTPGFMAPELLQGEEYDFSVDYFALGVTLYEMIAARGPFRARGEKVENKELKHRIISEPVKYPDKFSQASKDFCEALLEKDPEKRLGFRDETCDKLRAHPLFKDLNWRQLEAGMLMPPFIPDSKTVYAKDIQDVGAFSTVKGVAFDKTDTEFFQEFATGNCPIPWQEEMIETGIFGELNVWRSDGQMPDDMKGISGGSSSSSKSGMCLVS

382 unique human kinases [6] = biological target: T6, 382 unique human kinases (Homo sapiens, UniProt Q13554); details: kinase CAMK2b, compound 10 uM; for remaining activity at 10 µM: read-out: % Enzyme Activity (relative to DMSO controls)
T6 construct: purchased Reaction Biology (HotSpot contract assay)

382 unique human kinases [7] = biological target: T7, 382 unique human kinases (Homo sapiens, UniProt P10721, D820Y); details: c-Kit (D820Y), 10 uM; for remaining activity at 10 µM: read-out: % Enzyme Activity (relative to DMSO controls)
T7 construct: purchased Reaction Biology (HotSpot contract assay)

382 unique human kinases [8] = biological target: T8, 382 unique human kinases (Homo sapiens, UniProt Q9UM73, G1269A); details: ALK (G1269A), [ATP] 2.5 µM, compound 10 uM; for remaining activity at 10 µM: read-out: % Enzyme Activity (relative to DMSO controls)
T8 construct: purchased Reaction Biology (HotSpot contract assay)

382 unique human kinases [9] = biological target: T9, 382 unique human kinases (Homo sapiens, UniProt P10721, N822K/V560G); details: c-Kit (V560G/N822K), [ATP] 5 µM, compound 10 uM; for remaining activity at 10 µM: read-out: % Enzyme Activity (relative to DMSO controls)
T9 construct: purchased Reaction Biology (HotSpot contract assay)

382 unique human kinases [10] = biological target: T10, 382 unique human kinases (Homo sapiens, UniProt P68400); details: CK2a, 10 uM; for remaining activity at 10 µM: read-out: % Enzyme Activity (relative to DMSO controls)
T10 construct: purchased Reaction Biology (HotSpot contract assay)

382 unique human kinases [11] = biological target: T11, 382 unique human kinases (Homo sapiens, UniProt P51813); details: BMX/ETK, [ATP] 50 µM, compound 10 uM; for remaining activity at 10 µM: read-out: % Enzyme Activity (relative to DMSO controls)
T11 construct: purchased Reaction Biology (HotSpot contract assay)
T11 sequence (P51813 1-675): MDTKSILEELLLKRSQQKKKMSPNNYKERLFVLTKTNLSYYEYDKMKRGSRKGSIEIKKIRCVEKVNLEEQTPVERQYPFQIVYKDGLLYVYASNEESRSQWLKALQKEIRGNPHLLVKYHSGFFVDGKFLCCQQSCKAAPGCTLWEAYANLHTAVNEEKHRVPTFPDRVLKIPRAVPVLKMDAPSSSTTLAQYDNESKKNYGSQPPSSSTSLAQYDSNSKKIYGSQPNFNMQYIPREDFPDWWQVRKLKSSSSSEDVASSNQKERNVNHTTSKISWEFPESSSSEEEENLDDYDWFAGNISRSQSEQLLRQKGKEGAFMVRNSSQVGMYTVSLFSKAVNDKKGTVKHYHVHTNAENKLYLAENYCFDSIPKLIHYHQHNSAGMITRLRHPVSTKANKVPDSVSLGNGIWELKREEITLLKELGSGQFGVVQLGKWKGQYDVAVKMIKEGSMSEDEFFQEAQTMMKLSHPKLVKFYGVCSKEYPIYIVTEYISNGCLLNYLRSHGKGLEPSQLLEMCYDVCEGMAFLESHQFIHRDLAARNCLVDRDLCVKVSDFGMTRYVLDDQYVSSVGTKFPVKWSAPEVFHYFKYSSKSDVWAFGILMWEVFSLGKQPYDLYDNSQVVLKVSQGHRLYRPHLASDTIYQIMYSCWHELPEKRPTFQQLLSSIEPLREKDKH

382 unique human kinases [12] = biological target: T12, 382 unique human kinases (Homo sapiens, UniProt Q9UM73, L1152R); details: ALK (L1152R), [ATP] 30 µM, compound 10 uM; for remaining activity at 10 µM: read-out: % Enzyme Activity (relative to DMSO controls)
T12 construct: purchased Reaction Biology (HotSpot contract assay)

[13] = kinase AMPK(A1/B1/G3), compound 10 uM

T12 sequence (Q9UM73 19-1620 L1152R): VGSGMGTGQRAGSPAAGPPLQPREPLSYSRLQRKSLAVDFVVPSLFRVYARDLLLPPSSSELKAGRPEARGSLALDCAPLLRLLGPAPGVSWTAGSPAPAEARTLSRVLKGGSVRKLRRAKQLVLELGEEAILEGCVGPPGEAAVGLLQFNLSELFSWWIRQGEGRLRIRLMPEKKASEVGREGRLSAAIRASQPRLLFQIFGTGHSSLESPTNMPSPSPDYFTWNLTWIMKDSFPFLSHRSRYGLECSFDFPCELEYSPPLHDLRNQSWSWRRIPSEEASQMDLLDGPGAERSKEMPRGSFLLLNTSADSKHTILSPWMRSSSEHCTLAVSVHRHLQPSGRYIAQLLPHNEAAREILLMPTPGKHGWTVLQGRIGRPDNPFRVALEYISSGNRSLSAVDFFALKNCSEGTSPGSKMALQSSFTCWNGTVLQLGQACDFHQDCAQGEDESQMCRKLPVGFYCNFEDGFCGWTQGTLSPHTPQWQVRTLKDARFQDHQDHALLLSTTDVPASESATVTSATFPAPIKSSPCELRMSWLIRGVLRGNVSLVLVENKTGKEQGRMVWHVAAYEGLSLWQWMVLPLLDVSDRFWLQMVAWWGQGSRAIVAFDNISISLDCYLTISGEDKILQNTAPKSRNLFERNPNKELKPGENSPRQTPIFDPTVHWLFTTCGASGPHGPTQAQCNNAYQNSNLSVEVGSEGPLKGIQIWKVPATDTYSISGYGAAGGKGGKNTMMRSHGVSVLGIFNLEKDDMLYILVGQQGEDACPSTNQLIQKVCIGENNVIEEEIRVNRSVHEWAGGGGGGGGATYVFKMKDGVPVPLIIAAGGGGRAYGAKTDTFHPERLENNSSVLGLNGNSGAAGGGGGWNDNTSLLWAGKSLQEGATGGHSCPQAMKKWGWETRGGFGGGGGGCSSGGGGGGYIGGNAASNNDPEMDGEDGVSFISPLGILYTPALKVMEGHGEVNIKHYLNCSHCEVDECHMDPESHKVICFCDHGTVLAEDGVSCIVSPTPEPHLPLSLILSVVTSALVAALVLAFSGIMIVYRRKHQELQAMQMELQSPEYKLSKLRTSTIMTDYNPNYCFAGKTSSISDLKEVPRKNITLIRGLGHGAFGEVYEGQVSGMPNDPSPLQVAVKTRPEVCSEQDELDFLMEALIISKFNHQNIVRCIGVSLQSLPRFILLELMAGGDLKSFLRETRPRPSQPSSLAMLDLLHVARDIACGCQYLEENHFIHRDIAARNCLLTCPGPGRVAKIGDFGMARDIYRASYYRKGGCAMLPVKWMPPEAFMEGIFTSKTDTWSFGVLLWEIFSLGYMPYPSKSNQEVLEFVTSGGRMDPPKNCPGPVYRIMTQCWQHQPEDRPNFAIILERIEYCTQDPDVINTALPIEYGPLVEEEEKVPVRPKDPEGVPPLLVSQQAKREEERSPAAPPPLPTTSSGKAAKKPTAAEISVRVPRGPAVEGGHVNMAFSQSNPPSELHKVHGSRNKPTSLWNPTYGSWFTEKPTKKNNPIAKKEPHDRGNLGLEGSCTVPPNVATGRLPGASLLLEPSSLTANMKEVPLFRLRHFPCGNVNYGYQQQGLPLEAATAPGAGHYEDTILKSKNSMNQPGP
T7 sequence (P10721 26-976 D820Y): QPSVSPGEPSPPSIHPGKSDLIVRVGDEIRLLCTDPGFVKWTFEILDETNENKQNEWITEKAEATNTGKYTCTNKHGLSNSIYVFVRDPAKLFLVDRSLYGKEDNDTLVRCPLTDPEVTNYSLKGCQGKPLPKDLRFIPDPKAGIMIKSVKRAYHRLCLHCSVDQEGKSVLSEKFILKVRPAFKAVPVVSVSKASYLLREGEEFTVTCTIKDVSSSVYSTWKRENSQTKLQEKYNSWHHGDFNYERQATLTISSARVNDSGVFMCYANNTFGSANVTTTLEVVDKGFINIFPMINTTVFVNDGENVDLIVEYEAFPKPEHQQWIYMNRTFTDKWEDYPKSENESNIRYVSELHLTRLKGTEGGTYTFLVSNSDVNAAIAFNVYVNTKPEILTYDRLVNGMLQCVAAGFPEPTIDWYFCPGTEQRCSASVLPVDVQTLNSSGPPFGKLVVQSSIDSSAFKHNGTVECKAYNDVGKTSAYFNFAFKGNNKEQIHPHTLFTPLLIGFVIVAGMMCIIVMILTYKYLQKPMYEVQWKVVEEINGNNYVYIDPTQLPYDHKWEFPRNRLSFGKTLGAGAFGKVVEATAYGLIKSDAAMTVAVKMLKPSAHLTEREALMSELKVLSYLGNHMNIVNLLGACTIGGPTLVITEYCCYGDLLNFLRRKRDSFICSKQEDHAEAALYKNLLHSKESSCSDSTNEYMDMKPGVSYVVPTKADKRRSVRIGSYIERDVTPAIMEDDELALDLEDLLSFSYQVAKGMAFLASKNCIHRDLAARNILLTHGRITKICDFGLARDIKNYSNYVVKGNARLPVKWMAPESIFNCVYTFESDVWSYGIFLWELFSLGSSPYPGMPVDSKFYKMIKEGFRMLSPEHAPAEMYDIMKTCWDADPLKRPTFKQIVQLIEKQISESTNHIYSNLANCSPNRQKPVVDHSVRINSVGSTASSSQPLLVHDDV
T2 sequence (Q13131 whole entry): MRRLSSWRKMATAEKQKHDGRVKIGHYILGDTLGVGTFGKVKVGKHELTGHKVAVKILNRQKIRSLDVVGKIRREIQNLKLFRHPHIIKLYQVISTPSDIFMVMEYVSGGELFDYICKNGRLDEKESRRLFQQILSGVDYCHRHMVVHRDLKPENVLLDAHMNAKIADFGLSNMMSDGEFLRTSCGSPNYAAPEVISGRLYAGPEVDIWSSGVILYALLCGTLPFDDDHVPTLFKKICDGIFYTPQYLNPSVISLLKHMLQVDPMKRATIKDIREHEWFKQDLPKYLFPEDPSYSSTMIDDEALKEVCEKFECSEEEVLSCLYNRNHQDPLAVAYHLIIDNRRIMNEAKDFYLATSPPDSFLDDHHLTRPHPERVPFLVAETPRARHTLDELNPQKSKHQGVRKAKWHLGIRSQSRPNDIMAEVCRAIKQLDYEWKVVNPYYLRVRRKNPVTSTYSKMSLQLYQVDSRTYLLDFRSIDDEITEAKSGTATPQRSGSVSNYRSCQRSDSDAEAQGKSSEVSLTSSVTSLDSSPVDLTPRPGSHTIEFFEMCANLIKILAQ
T9 sequence (P10721 26-976 V560G/N822K): as the sequence (P10721 26-976 D820Y) above, with V535G, Y795D, N797K counted along it
T1 sequence (P48729 whole entry): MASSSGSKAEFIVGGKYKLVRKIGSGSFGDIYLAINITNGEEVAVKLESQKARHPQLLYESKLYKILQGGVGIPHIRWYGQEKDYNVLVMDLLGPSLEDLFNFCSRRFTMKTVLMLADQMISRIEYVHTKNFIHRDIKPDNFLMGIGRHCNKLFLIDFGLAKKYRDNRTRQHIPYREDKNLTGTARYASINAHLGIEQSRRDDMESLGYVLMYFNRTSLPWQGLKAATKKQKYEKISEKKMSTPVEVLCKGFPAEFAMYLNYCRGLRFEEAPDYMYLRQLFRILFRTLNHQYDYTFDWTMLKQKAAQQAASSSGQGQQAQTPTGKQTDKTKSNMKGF
T10 sequence (P68400 whole entry): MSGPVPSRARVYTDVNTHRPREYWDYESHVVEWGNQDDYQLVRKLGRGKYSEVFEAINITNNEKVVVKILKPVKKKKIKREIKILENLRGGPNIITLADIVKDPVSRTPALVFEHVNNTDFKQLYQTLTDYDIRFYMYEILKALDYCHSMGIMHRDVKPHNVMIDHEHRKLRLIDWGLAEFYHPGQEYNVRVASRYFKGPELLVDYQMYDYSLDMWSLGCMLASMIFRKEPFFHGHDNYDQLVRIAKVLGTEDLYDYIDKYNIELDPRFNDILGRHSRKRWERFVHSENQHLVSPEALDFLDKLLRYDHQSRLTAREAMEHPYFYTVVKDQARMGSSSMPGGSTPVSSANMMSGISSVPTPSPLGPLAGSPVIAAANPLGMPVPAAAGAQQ
T6 sequence (Q13554 whole entry): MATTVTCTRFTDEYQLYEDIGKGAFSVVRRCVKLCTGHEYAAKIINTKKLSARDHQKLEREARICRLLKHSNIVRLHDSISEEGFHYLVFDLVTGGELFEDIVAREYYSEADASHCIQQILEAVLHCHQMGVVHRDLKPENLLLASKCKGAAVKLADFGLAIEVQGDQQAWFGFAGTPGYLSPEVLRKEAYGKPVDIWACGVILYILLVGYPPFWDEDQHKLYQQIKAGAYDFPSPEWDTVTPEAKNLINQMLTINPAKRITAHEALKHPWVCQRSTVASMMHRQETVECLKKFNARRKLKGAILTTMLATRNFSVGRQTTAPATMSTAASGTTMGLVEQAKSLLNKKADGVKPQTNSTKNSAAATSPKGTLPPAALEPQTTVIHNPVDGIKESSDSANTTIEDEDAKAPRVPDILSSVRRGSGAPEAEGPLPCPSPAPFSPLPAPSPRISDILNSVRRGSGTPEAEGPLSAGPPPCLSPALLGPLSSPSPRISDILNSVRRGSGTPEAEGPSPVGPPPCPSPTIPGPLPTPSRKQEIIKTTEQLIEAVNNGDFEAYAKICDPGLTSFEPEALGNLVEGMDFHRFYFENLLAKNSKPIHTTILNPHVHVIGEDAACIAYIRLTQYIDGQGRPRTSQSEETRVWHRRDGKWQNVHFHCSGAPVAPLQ
T8 sequence (Q9UM73 19-1620 G1269A): as the sequence (Q9UM73 19-1620 L1152R) above, with R1134L, G1251A counted along it

## CC(C)c1cc(-c2n[nH]c(=O)n2-c2ccc3c(ccn3C)c2)c(O)cc1O [Ganetespib (STA9090)]
382 unique human kinases [1]
  remaining activity at 10 µM: 84.4%
382 unique human kinases [2]; AMPK(A1/B1/G1), 10 uM
  remaining activity at 10 µM: 79.7%
382 unique human kinases [2]; AMPK(A1/B1/G2), 10 uM
  remaining activity at 10 µM: 73.2%
382 unique human kinases [2]; AMPK(A1/B2/G1), 10 uM
  remaining activity at 10 µM: 70.8%
382 unique human kinases [2]; [13]
  remaining activity at 10 µM: 86.1%
382 unique human kinases [3]
  remaining activity at 10 µM: 73.6%
382 unique human kinases [4]
  remaining activity at 10 µM: 86.5%
382 unique human kinases [5]
  remaining activity at 10 µM: 76%
382 unique human kinases [6]
  remaining activity at 10 µM: 79.1%
382 unique human kinases [7]
  remaining activity at 10 µM: 62.7%

## CC(C)c1cc(-c2n[nH]c(=O)n2-c2ccc3c(ccn3C)c2)c(O)cc1O [Ganetespib]
382 unique human kinases [8]
  remaining activity at 10 µM: 55.7%
382 unique human kinases [9]
  remaining activity at 10 µM: 41.8%
382 unique human kinases [10]
  remaining activity at 10 µM: 101%
382 unique human kinases [11]
  remaining activity at 10 µM: 46.7%
382 unique human kinases [12]
  remaining activity at 10 µM: 14.2%

## CCNC(=O)c1noc(-c2cc(C(C)C)c(O)cc2O)c1-c1ccc(CN2CCOCC2)cc1 [Luminespib (AUY-922)]
382 unique human kinases [1]
  % Enzyme Activity (relative to DMSO controls): 96.26%
  remaining activity at 10 µM: 101%
382 unique human kinases [2]; AMPK(A1/B1/G1), 10 uM
  % Enzyme Activity (relative to DMSO controls): 99.40%
  remaining activity at 10 µM: 101%
382 unique human kinases [2]; AMPK(A1/B1/G2), 10 uM
  % Enzyme Activity (relative to DMSO controls): 104.49%
  remaining activity at 10 µM: 107%
382 unique human kinases [2]; AMPK(A1/B2/G1), 10 uM
  % Enzyme Activity (relative to DMSO controls): 96.58%
  remaining activity at 10 µM: 97.6%
382 unique human kinases [2]; [13]
  % Enzyme Activity (relative to DMSO controls): 118.21%
  remaining activity at 10 µM: 119%
382 unique human kinases [3]
  % Enzyme Activity (relative to DMSO controls): 85.21%
  remaining activity at 10 µM: 86.4%
382 unique human kinases [4]
  % Enzyme Activity (relative to DMSO controls): 100.14%
  remaining activity at 10 µM: 100%
382 unique human kinases [5]
  % Enzyme Activity (relative to DMSO controls): 85.44%
  remaining activity at 10 µM: 85.9%
382 unique human kinases [6]
  % Enzyme Activity (relative to DMSO controls): 99.03%
  remaining activity at 10 µM: 99.6%
382 unique human kinases [7]
  % Enzyme Activity (relative to DMSO controls): 70.30%
  remaining activity at 10 µM: 71.4%

## CCNC(=O)c1noc(-c2cc(C(C)C)c(O)cc2O)c1-c1ccc(CN2CCOCC2)cc1 [Luminespib]
382 unique human kinases [8]
  % Enzyme Activity (relative to DMSO controls): 90.09%
  remaining activity at 10 µM: 90.3%
382 unique human kinases [9]
  % Enzyme Activity (relative to DMSO controls): 75.80%
  remaining activity at 10 µM: 76.2%
382 unique human kinases [10]
  % Enzyme Activity (relative to DMSO controls): 112.96%
  remaining activity at 10 µM: 117%
382 unique human kinases [11]
  % Enzyme Activity (relative to DMSO controls): 102.71%
  remaining activity at 10 µM: 103%
382 unique human kinases [12]
  % Enzyme Activity (relative to DMSO controls): 90.08%
  remaining activity at 10 µM: 90.7%
